Results published in PMC11643744, “New Conjugates of Vancomycin with Cell-Penetrating Peptides—Synthesis, Antimicrobial Activity, Cytotoxicity, and BBB Permeability Studies” (Molecules, 2024).
Converted amounts (≈) assume the structure as drawn.

Tests used:
S. aureus ATCC 29213 = assay: microbe, parasite or virus in culture; assay type: cell-based, Staphylococcus aureus; details: reference strain; for MIC: read-out: MIC S. aureus ATCC 29213
Description: (§1) The antimicrobial activity of the synthesized compounds was evaluated against four reference bacterial strains: Staphylococcus aureus (ATCC 29213), Enterococcus faecalis (ATCC 29212), Escherichia coli (ATCC 25922), and Pseudomonas aeruginosa (ATCC 27853), which are commonly used for determining antibacterial activity. In addition, two clinical strains, S. aureus (MRSA) and E. faecium (VRE), were included in the study. The bacterial strains were inoculated from Selectrol discs (Biomaxima SA, Lublin, Poland) onto blood agar (Graso Biotech, Starogard Gdański, Poland) and incubated at 37 °C for 24 h. Before testing, the strains were cultured aerobically on blood agar at 37 °C for 24 h.
(§2) The susceptibility of microorganisms to the synthesized compounds was determined using the broth microdilution assay, following the guidelines outlined by CLSI [30]. The final concentrations of the tested compounds in Mueller–Hinton broth, in 96-well plates (VWR International Sp. z o.o., Gdańsk, Poland), ranged from 0.125 to 256 mg/L. To prepare the bacterial suspension, bacteria from the overnight culture on blood agar were diluted in sterile 0.9% NaCl to achieve a turbidity equivalent to a 0.5 McFarland standard. The adjusted inoculum suspension was further diluted in Mueller–Hinton broth so that after inoculation, each well contained approximately 5 × 10^5 CFU/mL. Aliquots (5 µL) of bacterial suspension were added to each solution. The sterility control (containing the broth) and the growth control (containing the reference strain in broth without the tested compound) were also set up. The antibiotics vancomycin and gentamicin were used as a control. The plates were incubated at 37 °C under aerobic conditions. The results are expressed as the MIC of the tested compounds, which was defined as the lowest concentration at which no visible growth of bacteria (no turbidity) was observed. The assay was performed in triplicate.

E. faecalis ATCC 29212 = assay: microbe, parasite or virus in culture; assay type: cell-based, Enterococcus faecalis; details: reference strain; for MIC: read-out: MIC E. faecalis ATCC 29212
Description: as §1, §2

E. coli ATCC 25922 = assay: microbe, parasite or virus in culture; assay type: cell-based, Escherichia coli; details: reference strain
Description: as §1, §2

PAMPA-BBB assay = details: 20 h incubation; for R, mass retention: mean ± SEM; for Papp at 20 h, 20 µM: pig, PAMPA, pH 7.4, Pe, effective permeability coefficient, pH 7.4, mean ± SEM
Text: This assay utilized a 96-well plate assembly consisting of a filter plate pre-coated with polar brain lipids (donor plate) and a receiver plate (acceptor plate). The phospholipid mixture used to coat the membrane was extracted from porcine polar brain lipids, with the following composition: 12.6% phosphatidylcholine, 33.1% phosphatidylethanolamine, 18.5% phosphatidylserine, 4.1% phosphatidylinositol, 0.8% phosphatidic acid, and 30.9% of other compounds, including cerebrosides, sulfatides, and pigments.
In each well of the donor filtration plate (Multiscreen Filter Plate, PVDF with a pore size of 0.45 µm), 5 µL of the phospholipid mixture in n-dodecane (20 mg/mL) was carefully applied to form the artificial membrane. After coating, 200 µL of phosphate-buffered saline (PBS at pH 7.4) containing 5% dimethyl sulfoxide (DMSO) as a co-solvent, and the test compound (at a concentration of 20 µM) was added to each well of the donor plate (in triplicate). […] The plate lid was then replaced and the resulting assembled donor–acceptor plates were incubated at room temperature for 20 h. After this time, the donor plate was removed and solutions from each well of both acceptor and donor plates were collected for further analysis. The concentrations of the tested compounds were determined by LC-MS. The analysis was conducted by UHPLC-MS system (Shimadzu Nexera X2 with LCMS-2020 detector) using a ReproSil Pure 120 ODS-3 column (Dr. Maisch GmbH, 100 × 2 mm, 2.4 µm particle size) with several gradients of ACN with 0.1% FA and 0.05% TFA at a flow rate of 0.3 mL/min. The eluted solution was monitored by an ESI-MS detector operated in a selected ion monitoring mode (SIM). […] CE=CD×VD+CA×VA/VD+VA

[1] = system: normal human fibroblasts, BJ line (CRL-2522); assay: Neutral red cytotoxicity assay; details: 24 h
Description: Normal human fibroblasts, BJ line (CRL-2522™), Eagle’s Minimum Essential Medium (EMEM), and fetal bovine serum (FBS) were obtained from ATCC (Manassas, VA, USA). Cells were grown following ATCC guidelines in an EMEM medium supplemented with 10% FBS at 37 °C in a humidified atmosphere of 95% air and 5% CO2 in a HeraCell 150 incubator (Heraeus, Hanau, Germany).
The assay was performed as per previously published protocols with slight modifications. In brief, BJ cells were plated in 96-well tissue culture plates (Nest Scientific Biotechnology, Wuxi, China) at a density of 6 × 10^3 cells per well and allowed to attach for 24 h in EMEM supplemented with 10% FBS. After the incubation period, the medium was removed, and 10% dimethyl sulfoxide (DMSO)-treated cells (Sigma-Aldrich, St. Louis, MO, USA) were used as a positive control, while nontreated cells served as a negative control.
The cells were treated with peptides suspended in EMEM medium supplemented with 10% FBS and incubated for 24 h at 37 °C in a humidified atmosphere of 95% air and 5% CO2. After the incubation, the supernatants were discarded and replaced with 100 µL of non-supplemented EMEM containing 0.33% neutral red (Sigma-Aldrich) diluted 1:40. The cells were incubated for an additional 2 h at 37 °C. Following incubation, the neutral red medium was removed, and the cells were washed with 100 µL of phosphate-buffered saline (PBS) per well.
To extract the dye into the solution, the cells were treated with 150 µL of a solution containing 50% ethanol (Alchem, Torun, Poland), 49% distilled H2O, and 1% acetic acid (Alchem, Torun, Poland) and incubated under shaking at 37 °C for 10 min. Absorbance was measured at 540 nm using a Synergy H1 plate reader (BioTek Instruments, Winooski, VT, USA). The assay was performed in triplicate to ensure reproducibility.

[2] = system: S. aureus MRSA (clinical isolate no 203); assay: microbe, parasite or virus in culture; assay type: cell-based, Staphylococcus aureus; details: methicillin-resistant clinical isolate no 203; read-out: MIC S. aureus MRSA
Description: as §1, §2

[3] = system: E. faecium VRE (clinical isolate UCK 7979384); assay: microbe, parasite or virus in culture; assay type: cell-based; details: vancomycin-resistant clinical isolate UCK 7979384; read-out: MIC E. faecium VRE
Description: as §1, §2

| Structure (SMILES) | MIC S. aureus ATCC 29213 (S. aureus ATCC 29213) [µg/mL] | MIC (S. aureus ATCC 29213) [µM] | MIC E. faecalis ATCC 29212 (E. faecalis ATCC 29212) [µg/mL] | MIC (E. faecalis ATCC 29212) [µM] | MIC (E. coli ATCC 25922) [µM] | MIC E. coli ATCC 25922 (E. coli ATCC 25922) [µg/mL] | R, mass retention (PAMPA-BBB assay) [%] | concentration above which cytotoxicity was shown [1] | Papp at 20 h, 20 µM (PAMPA-BBB assay) [×10⁻⁶ cm/s] | MIC [2] [µM] | MIC [3] [µM] | effect on cell viability ([1]; across the tested concentration range) |
| --- | --- | --- | --- | --- | --- | --- | --- | --- | --- | --- | --- | --- |
| CN[C@H](CC(C)C)C(=O)N[C@H]1C(=O)N[C@@H](CC(N)=O)C(=O)N[C@H]2C(=O)N[C@H]3C(=O)N[C@H](C(=O)N[C@H](C(=O)NCCSSCCn4cc(C(=O)N[C@@H](CCCNC(=N)N)C(=O)N[C@@H](CCCNC(=N)N)C(=O)N[C@@H](CCCNC(=N)N)C(=O)N[C@@H](CCCNC(=N)N)C(=O)N[C@@H](CCCNC(=N)N)C(=O)N[C@@H](CCCNC(=N)N)C(=O)N[C@@H](CCCNC(=N)N)C(=O)N[C@@H](CCCNC(=N)N)C(=O)N[C@@H](CCCNC(=N)N)C(N)=O)nn4)c4cc(O)cc(O)c4-c4cc3ccc4O)[C@H](O)c3ccc(c(Cl)c3)Oc3cc2cc(c3O[C@@H]2O[C@H](CO)[C@@H](O)[C@H](O)[C@H]2O[C@H]2C[C@](C)(N)[C@H](O)[C@H](C)O2)Oc2ccc(cc2Cl)[C@H]1O [compound 17] | 4 (≈ 1.3 µM) | 1.30 (≈ 4.01 µg/mL) | 8 (≈ 2.59 µM) | 2.59 (≈ 7.99 µg/mL) | >83 | >256 | 20.7 ± 0.3 | – | – | – | – | – |
| CC[C@H](C)[C@H](NC(=O)[C@H](CCCCN)NC(=O)[C@H](CCCCN)NC(=O)[C@H](C)NC(=O)[C@H](CC(C)C)NC(=O)[C@H](C)NC(=O)[C@H](C)NC(=O)[C@H](CC(C)C)NC(=O)[C@H](C)NC(=O)[C@H](CCCCN)NC(=O)[C@H](CC(C)C)NC(=O)[C@H](CC(N)=O)NC(=O)[C@@H](NC(=O)[C@H](CCCCN)NC(=O)CNC(=O)[C@H](CC(C)C)NC(=O)[C@H](CC(C)C)NC(=O)[C@H](Cc1ccc(O)cc1)NC(=O)CNC(=O)[C@H](C)NC(=O)c1cn(CCOCCOCCOCCNC(=O)[C@H]2NC(=O)[C@H]3NC(=O)[C@H](NC(=O)[C@@H]4NC(=O)[C@H](CC(N)=O)NC(=O)[C@H](NC(=O)[C@@H](CC(C)C)NC)[C@H](O)c5ccc(c(Cl)c5)Oc5cc4cc(c5O[C@@H]4O[C@H](CO)[C@@H](O)[C@H](O)[C@H]4O[C@H]4C[C@](C)(N)[C@H](O)[C@H](C)O4)Oc4ccc(cc4Cl)[C@H]3O)c3ccc(O)c(c3)-c3c(O)cc(O)cc32)nn1)[C@@H](C)CC)C(=O)N[C@@H](CC(C)C)C(N)=O [compound 2] | – | – | – | – | – | – | 10.0 ± 0.6 | above 64 µg/mL | 0.187 | – | – | – |
| CC[C@H](C)[C@H](NC(=O)[C@H](CCCCN)NC(=O)[C@H](CCCCN)NC(=O)[C@H](C)NC(=O)[C@H](CC(C)C)NC(=O)[C@H](C)NC(=O)[C@H](C)NC(=O)[C@H](CC(C)C)NC(=O)[C@H](C)NC(=O)[C@H](CCCCN)NC(=O)[C@H](CC(C)C)NC(=O)[C@H](CC(N)=O)NC(=O)[C@@H](NC(=O)[C@H](CCCCN)NC(=O)CNC(=O)[C@H](CC(C)C)NC(=O)[C@H](CC(C)C)NC(=O)[C@H](Cc1ccc(O)cc1)NC(=O)CNC(=O)[C@H](C)N)[C@@H](C)CC)C(=O)N[C@@H](CC(C)C)C(N)=O [compound 1, TP10] | – | 14.7 (≈ 32.1 µg/mL) | – | 29.3 (≈ 63.9 µg/mL) | 14.7 (≈ 32.1 µg/mL) | – | – | – | – | 3.67 (≈ 8.01 µg/mL) | – | – |
| C#CC(=O)N[C@@H](CCCNC(=N)N)C(=O)N[C@@H](CCCNC(=N)N)C(=O)N[C@@H](CCCNC(=N)N)C(=O)N[C@@H](CCCNC(=N)N)C(=O)N[C@@H](CCCNC(=N)N)C(=O)N[C@@H](CCCNC(=N)N)C(=O)N[C@@H](CCCNC(=N)N)C(=O)N[C@@H](CCCNC(=N)N)C(=O)N[C@@H](CCCNC(=N)N)C(N)=O [compound 14] | – | 21.7 (≈ 32 µg/mL) | – | 87 (≈ 128 µg/mL) | 43 (≈ 63.4 µg/mL) | – | 8.0 ± 1.2 | – | – | 2.71 (≈ 4 µg/mL) | 21.7 (≈ 32 µg/mL) | – |
| CN[C@H](CC(C)C)C(=O)N[C@H]1C(=O)N[C@@H](CC(N)=O)C(=O)N[C@H]2C(=O)N[C@H]3C(=O)N[C@H](C(=O)N[C@H](C(=O)NCCSSCCn4cc(C(=O)N[C@@H](Cc5ccc(O)cc5)C(=O)N[C@@H](C)C(=O)N[C@@H](CCCNC(=N)N)C(=O)N[C@@H](C)C(=O)N[C@@H](C)C(=O)N[C@@H](C)C(=O)N[C@@H](CCCNC(=N)N)C(=O)N[C@@H](CCC(N)=O)C(=O)N[C@@H](C)C(=O)N[C@@H](CCCNC(=N)N)C(=O)N[C@@H](C)C(N)=O)nn4)c4cc(O)cc(O)c4-c4cc3ccc4O)[C@H](O)c3ccc(c(Cl)c3)Oc3cc2cc(c3O[C@@H]2O[C@H](CO)[C@@H](O)[C@H](O)[C@H]2O[C@H]2C[C@](C)(N)[C@H](O)[C@H](C)O2)Oc2ccc(cc2Cl)[C@H]1O [compound 12] | – | – | – | – | – | – | 12.7 ± 2.2 | – | 0.036 ± 0.004 | – | – | did not significantly affect cell viability |
| CN[C@H](CC(C)C)C(=O)N[C@H]1C(=O)N[C@@H](CC(N)=O)C(=O)N[C@H]2C(=O)N[C@H]3C(=O)N[C@H](C(=O)N[C@H](C(=O)O)c4cc(O)cc(O)c4-c4cc3ccc4O)[C@H](O)c3ccc(c(Cl)c3)Oc3cc2cc(c3O[C@@H]2O[C@H](CO)[C@@H](O)[C@H](O)[C@H]2O[C@H]2C[C@](C)(NC(=O)CCOCCOCCOCCOCCn3cc(C(=O)N[C@@H](Cc4ccc(O)cc4)C(=O)N[C@@H](C)C(=O)N[C@@H](CCCNC(=N)N)C(=O)N[C@@H](C)C(=O)N[C@@H](C)C(=O)N[C@@H](C)C(=O)N[C@@H](CCCNC(=N)N)C(=O)N[C@@H](CCC(N)=O)C(=O)N[C@@H](C)C(=O)N[C@@H](CCCNC(=N)N)C(=O)N[C@@H](C)C(N)=O)nn3)[C@H](O)[C@H](C)O2)Oc2ccc(cc2Cl)[C@H]1O [compound 11] | – | – | – | – | – | – | 32.7 ± 0.9 | > 64 µg/mL | 0.066 ± 0.007 | – | – | – |
